Paper PMC11997890, “In Vivo and In Vitro Pharmacokinetic Studies of a Dual Topoisomerase I/II Inhibitor” (ACS Pharmacology & Translational Science, 2025)

Tests used:
OvCar8 cells [1] = test: 2D monolayer viability assay (ApoLive-Glo); assay type: cell-based; settings: Homo sapiens, OVCAR-8; OvCar8 2D monolayer, 48 h
Protocol: (§1) The efficacy of metabolites can have a significant impact on the efficacy of the drug. […] The therapeutic effect of P8-D6 mono and P8-D6 N-oxide was investigated in vitro in human ovarian cancer 2D monolayers and 3D spheroids (Figures and ). 48 h of treatment of the ovarian cancer cell lines (OvCar8, A2780, Igrov-1) with P8-D6 mono and P8-D6 N-oxide was compared to P8-D6 and cisplatin (study preparation scheme supplied as Figure S5). Both metabolites decreased viability in ovarian cancer cells in a 2D monolayer (Figure A, supplied as Figure S3 A,C).
(§2) The human ovarian cancer cell lines OvCar8, Igrov-1, and A2780, purchased from ATCC, were maintained in RPMI1640 medium, including L-glutamine supplemented with 10% fetal bovine serum and 60 IU/mL penicillin–streptomycin. Cells were grown at 37 °C and 5% CO2 in a humidified incubator and subcultivated at a confluency of 70–80%. Cell line authenticity was checked by STR profiling as described previously, and mycoplasma contamination was routinely investigated using MycoAlert (Lonza).
For the measurements of viability and apoptosis, cells of approximately 8000/well were seeded in a Corning No. 3903 plate and treated with the corresponding drugs for 48 h. After treatment, apoptosis and cell viability assays were performed using an ApoLive-Glo Multiplex Assay Kit (Promega #G6410) according to the manufacturer’s instructions. Fluorescence and luminescence units were measured by using a microplate multimode reader (Spark, Tecan). Relative caspase activity was calculated as caspase activity divided by viability (normalized to control). […] All experiments were performed in biological triplicates. PBS was used as the negative control, and cisplatin and P8-D6 were used as the positive controls.

OvCar8 cells [2] = test: 2D monolayer apoptosis (caspase activity) assay (ApoLive-Glo); assay type: cell-based, human; settings: 48 h
Protocol: as §1
as §2, with “Cell line authenticity was checked by STR profiling as described previously, and mycoplasma contamination was routinely investigated using MycoAlert (Lonza).” left out
For the measurements of viability and apoptosis, cells of approximately 8000/well were seeded in a Corning No. 3903 plate and treated with the corresponding drugs for 48 h. […] Fluorescence and luminescence units were measured by using a microplate multimode reader (Spark, Tecan). Relative caspase activity was calculated as caspase activity divided by viability (normalized to control). […]

OvCar8 spheroids [3] = test: 3D spheroid viability (RealTime-Glo); assay type: cell-based, human; settings: for IC50: Homo sapiens, OVCAR-8, OvCar8 3D spheroids, 48 h
Protocol: (§3) Tumor complexity is represented more realistically in 3D spheroid models than in 2D monolayer models.
(§4) OvCar8 cells (8000/well) were seeded into an Ultra-Low-Attachment plate (Corning #4520) and grown for 96 h. Then, spheroids were treated with the drugs for 48 h. Cell cytotoxicity was assessed using the CellTox Green Cytotoxicity Assay (Promega #G8731) 48 h after treatment with NYONE ([…], 485Ex/520Em). Filters: BFEx/GreenEm (530/43 nm); BlueEx (475/28 nm)/GreenEm (530/43 nm). Viability and apoptosis were determined by RealTime-Glo (460Em) (Promega #G9711) and caspase-Glo 3/7 (565Em) (Promega #G8090) according to the manufacturer’s instructions using a microplate reader (Spark, Tecan). Relative caspase activity: caspase activity divided by the viability (normalized to control). For live-dead staining, cells were grown and treated as described above. Then, 80% of the medium was removed and replaced with propidium iodide (PI) (15 μM), calcein-AM (0.2 μM), and Hoechst 33342 (1.8 μM) in medium for 3 h and imaged by NYONE ([…]). Filters: BFEx/GreenEm(530/43 nm); Hoechst 33342: UVEx (377/50 nm)/BlueEm (452/45 nm); calcein-AM: BlueEx (475/28 nm)/GreenEm (530/43 nm); propidium iodide: LimeEx(562/40 nm)/RedEm(628/32 nm). All experiments were performed in biological triplicates. PBS was used as the negative control, and cisplatin and P8-D6 as the positive control.

human FMO3 = human FMO3 (Homo sapiens, UniProt P31513); test: Conversion of P8-D6 by recombinant FMO3; assay type: in vitro ADME; settings: seven recombinant CYP isoenzymes and human FMO3
Protocol: (§5) P8-D6 N-oxide was the most common metabolite for all incubations with subcellular fractions from the homogenized tissue. According to the detected MS-MS fragments (supplied as Supporting Information Chapter 2), it resulted from N-oxygenation of the nitrogen at the side chain since the unmodified fragment of P8-DO (m/z = 414.1) was detected. Furthermore, the detected fragment at m/z = 440.1 is most likely a carbocation at the remaining ethyl chain after splitting off the dimethylamine N-oxide further strengthening the theory of selectively forming this specific N-oxide. In addition, no relevant chemical shifts in the aromatic range of the ^1H NMR compared to P8-D6 and mono were observed (supplied as Supporting Information Chapter 2). Thus, no chemical modifications can have occurred on the aromatic rings, and all changes must therefore affect the side chain. […] To determine which enzymes were responsible for the conversion, seven recombinant CYP 450 isoenzymes recommended by the FDA’s “Guidance for Industry” and human FMO3 were used.
For all phase I metabolism studies (except cell cultures), a 0.3 mL reaction mixture consisting of 1 mM substrate (P8-D6, P8-D6 mono, P8-D6 N-oxide), 1 mM NADPH as a cofactor, 0.67 mg/mL protein from homogenized tissue or subcellular fractions, respectively (except recombinant enzymes, where 0.5 mg/mL was used), and PBS buffer (pH 7.4) was used. […]

CYP2D6 = target: T1, CYP2D6 (Homo sapiens, UniProt P10635); test: Conversion of P8-D6 by recombinant CYP2D6; assay type: in vitro ADME
T1 construct: host or cells: human liver microsomes (one value) / recombinant CYP enzyme (other value)
Protocol: as §5
Among the recombinant enzymes, P8-D6 is mostly metabolized to P8-D6 mono by CYP3A4 (0.34%, significant compared to any other enzyme, p < 0.0001) and 2D6 (0.17%, significant compared to 2C8, 1A2, 2C19, and 2C9, p < 0.005) (Figure E). […]

OvCar8 spheroids [4] = test: 3D spheroid cytotoxicity (CellTox Green); assay type: cell-based; settings: Homo sapiens, OVCAR-8, 48 h, OvCar8 3D spheroids, read-out: IC50 cell toxicity (CellTox Green)
Protocol: as §3, §4

T1 sequence (P10635 whole entry): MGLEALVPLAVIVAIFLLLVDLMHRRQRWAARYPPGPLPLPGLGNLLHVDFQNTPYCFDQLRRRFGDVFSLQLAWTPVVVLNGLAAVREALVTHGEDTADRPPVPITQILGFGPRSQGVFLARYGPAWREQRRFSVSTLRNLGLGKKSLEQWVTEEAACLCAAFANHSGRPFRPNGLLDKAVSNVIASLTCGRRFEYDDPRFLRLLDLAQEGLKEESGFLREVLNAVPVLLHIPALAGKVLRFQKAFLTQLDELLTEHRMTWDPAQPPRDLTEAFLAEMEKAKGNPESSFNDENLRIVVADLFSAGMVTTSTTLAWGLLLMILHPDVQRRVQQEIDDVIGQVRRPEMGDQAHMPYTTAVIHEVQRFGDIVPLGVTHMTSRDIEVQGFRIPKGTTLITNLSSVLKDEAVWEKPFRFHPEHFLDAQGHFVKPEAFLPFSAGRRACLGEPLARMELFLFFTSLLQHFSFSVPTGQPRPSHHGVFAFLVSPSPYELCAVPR
human FMO3, sequence (P31513 whole entry, the tested form may be a part): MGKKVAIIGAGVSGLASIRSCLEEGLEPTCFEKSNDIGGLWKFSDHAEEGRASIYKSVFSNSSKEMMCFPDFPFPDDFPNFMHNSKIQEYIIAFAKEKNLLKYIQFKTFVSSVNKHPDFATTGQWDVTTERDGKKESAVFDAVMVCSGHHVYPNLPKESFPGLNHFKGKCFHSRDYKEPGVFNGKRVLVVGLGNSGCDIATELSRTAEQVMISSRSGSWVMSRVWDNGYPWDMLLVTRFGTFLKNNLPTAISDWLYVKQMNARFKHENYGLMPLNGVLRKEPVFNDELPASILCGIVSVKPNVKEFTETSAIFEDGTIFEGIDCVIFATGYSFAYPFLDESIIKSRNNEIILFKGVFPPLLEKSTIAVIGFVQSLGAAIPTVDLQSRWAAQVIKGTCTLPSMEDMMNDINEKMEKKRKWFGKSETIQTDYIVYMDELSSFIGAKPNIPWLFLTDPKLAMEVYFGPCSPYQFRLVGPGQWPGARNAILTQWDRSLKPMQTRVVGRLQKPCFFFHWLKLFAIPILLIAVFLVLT

| IC50 (OvCar8 cells [1]) [nM] | IC50 (OvCar8 spheroids [3]) [nM] | formation of metabolite from P8-D6 by recombinant enzymes (human FMO3) | formation of metabolite from P8-D6 (CYP2D6) [%] | Structure (SMILES) | apoptosis rate higher than cisplatin (OvCar8 cells [2]; 10 μM) [fold] | efficacy increased compared to cisplatin (OvCar8 spheroids [3]; 3D spheroids) [fold] | efficacy reduced compared to P8-D6 mono (OvCar8 spheroids [3]; 3D spheroids) [fold] | apoptosis induction (OvCar8 cells [2]) | IC50 (OvCar8 spheroids [4]) [nM] |
| --- | --- | --- | --- | --- | --- | --- | --- | --- | --- |
| 1980 | 720 | only with FMO3 | – | COc1cc(-c2cc3ccncc3c3nc(OCC[N+](C)(C)[O-])c4cnccc4c23)cc(OC)c1OC [P8-D6 N-oxide] | 3.5 | 18 | 3 | – | – |
| 310 | 240 | – | 0.17 | CNCCOc1nc2c3cnccc3cc(-c3cc(OC)c(OC)c(OC)c3)c2c2ccncc12 [P8-D6 mono] | – | – | – | comparable to that of P8-D6 | 2220 |
| – | – | – | 0.09 | COc1cc(-c2cc3ccncc3c3[nH]c(=O)c4cnccc4c23)cc(OC)c1OC [P8-DO] | – | – | – | – | – |

| Structure (SMILES) | IC50 (OvCar8 cells [1]) [nM] | IC50 (OvCar8 spheroids [3]) [nM] | formation of metabolite from P8-D6 by recombinant enzymes (human FMO3) | formation of metabolite from P8-D6 (CYP2D6) [%] | apoptosis rate higher than cisplatin (OvCar8 cells [2]; 10 μM) [fold] | efficacy increased compared to cisplatin (OvCar8 spheroids [3]; 3D spheroids) [fold] | efficacy reduced compared to P8-D6 mono (OvCar8 spheroids [3]; 3D spheroids) [fold] | apoptosis induction (OvCar8 cells [2]) | IC50 (OvCar8 spheroids [4]) [nM] |
| --- | --- | --- | --- | --- | --- | --- | --- | --- | --- |
| COc1cc(-c2cc3ccncc3c3nc(OCCN(C)C)c4cnccc4c23)cc(OC)c1OC [P8-D6, 6-(N,N-dimethyl-2-aminoethoxy)-11-(3,4,5-trimethoxyphenyl)-pyrido[3,4-c][1,9]-phenanthroline] | 270 | – | – | – | – | – | – | – | 1110 |
